Each structure is given as a SMILES string. Where only a bound is given, the exact number is not on record here.

This is an account of results in patent US20250195530A1, “POLQ INHIBITORS” (ASTRAZENECA AB, priority 2022, published 2025).

In test [1] the test system is DLD-1 BRCA2−/− cells. The test can be described thus: Homologous recombination synthetic lethal inhibition of proliferation, DLD-1 BRCA2-/- (Cell Titre Glo 3D). It is filed as cell-based. The conditions noted are these: Homo sapiens, DLD-1, first proliferation column (c5); DLD-1 BRCA2-/-; read-out: POLQ PD Prolif Lumin (converted). An outline of the steps:
(§1)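 Read-out: CellTiter-Glo 3D luminescence, day 7 for wt DLD-1, day 12 for BRCA2−/−, about 8-9 population doublings each. Seeding 1,500 or 3,000 cells/mL respectively. Dose range 10 μM–0.51 nM, 3-fold, 10 points, with re-dosing on day 6. IC50 from curve fit.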

Test [2] concerns DLD-1 cells. The test can be described thus: Inhibition of proliferation, DLD-1 BRCA2 wt control (Cell Titre Glo 3D). The conditions noted are these: Homo sapiens, DLD-1, second proliferation column (c6); DLD-1 BRCA2 wt control; read-out: POLQ PD Prolif Lumin (converted). It is filed as cell-based. An outline of the steps:
as §1

For `Cc1ccnc(Cn2c(-c3ccc(OCCN4CCNCC4)cc3Cl)nc3c(OC4(C)CC4)ncnc32)c1F` [Example T504, 8-(2-chloro-4-(2-(piperazin-1-yl)ethoxy)phenyl)-9-((3-fluoro-4-methylpyridin-2-yl)methyl)-6-(1-methylcyclopropoxy)-9H-purine], the IC50 in test [1] is 2 µM; in test [2], > 10 µM.
In the same order, the values of `Cc1ccnc(Cn2c(-c3ccc(CCN4CCCC4)cc3Cl)nc3c(OC4(C)CC4)ncnc32)c1` [Example T505, 8-(2-chloro-4-(2-(pyrrolidin-1-yl)ethyl)phenyl)-6-(1-methylcyclopropoxy)-9-((4-methylpyridin-2-yl)methyl)-9H-purine] are 0.158 µM and > 10 µM.
In the same order, the values of `Clc1cc(OCCN2CCNCC2)ccc1-c1nc2c(OC3CCC3)ncnc2n1Cc1ccccc1` [Example T506, 9-benzyl-8-(2-chloro-4-(2-(piperazin-1-yl)ethoxy)phenyl)-6-cyclobutoxy-9H-purine] are 0.501 µM and 2 µM.
Take `Cc1ccnc(Cn2c(-c3ccc(OCCN4CCCC4)cc3Cl)nc3c(OC4(C)CC4)ncnc32)c1` [Example T507, 8-(2-chloro-4-(2-(pyrrolidin-1-yl)ethoxy)phenyl)-6-(1-methylcyclopropoxy)-9-((4-methylpyridin-2-yl)methyl)-9H-purine]: the IC50 in test [1] was 0.1 µM; in test [2] it was > 10 µM.
The like results for `Cc1ccnc(Cn2c(-c3ccc(CN4CCC(O)CC4)cc3Cl)nc3c(OC4(C)CC4)ncnc32)c1` [Example T508, 1-(3-chloro-4-(6-(1-methylcyclopropoxy)-9-((4-methylpyridin-2-yl)methyl)-9H-purin-8-yl)benzyl)piperidin-4-ol] were, in that order, 0.316 µM and > 10 µM.
In the same order, the values of `Cc1ccnc(Cn2c(-c3ccc(CCN4CC[C@@H](O)C4)cc3Cl)nc3c(OC4(C)CC4)ncnc32)c1` [Example T511, (R)-1-(3-chloro-4-(6-(1-methylcyclopropoxy)-9-((4-methylpyridin-2-yl)methyl)-9H-purin-8-yl)phenethyl)pyrrolidin-3-ol] are 0.316 µM and > 10 µM.
In the same order, the values of `Cc1ccnc(Cn2c(-c3ccc(OCCN4CC[C@@H](O)C4)cc3Cl)nc3c(OC4(C)CC4)ncnc32)c1` [Example T512, (R)-1-(2-(3-chloro-4-(6-(1-methylcyclopropoxy)-9-((4-methylpyridin-2-yl)methyl)-9H-purin-8-yl)phenoxy)ethyl)pyrrolidin-3-ol] are 0.2 µM and > 10 µM.
For the molecule `Cc1ccnc(Cn2c(-c3ccc(OCCCN4CC(O)C4)cc3Cl)nc3c(OC4(C)CC4)ncnc32)c1` [Example T513, 1-(3-(3-chloro-4-(6-(1-methylcyclopropoxy)-9-((4-methylpyridin-2-yl)methyl)-9H-purin-8-yl)phenoxy)propyl)azetidin-3-ol], the results for the IC50 in test [1] and in test [2] were 0.316 µM and > 10 µM, respectively.
Take `Cc1ccnc(Cn2c(-c3cccc(OCCCN4CC(O)C4)c3Cl)nc3c(OC4(C)CC4)ncnc32)c1` [Example T514, 1-(3-(2-chloro-3-(6-(1-methylcyclopropoxy)-9-((4-methylpyridin-2-yl)methyl)-9H-purin-8-yl)phenoxy)propyl)azetidin-3-ol]: the IC50 is 0.398 µM in test [1] and > 10 µM in test [2].
The like results for `C[C@H]1CNCCN1CCOc1ccc(-c2nc3c(OC4(C)CC4)ncnc3n2Cc2cc(Cl)ccn2)c(Cl)c1` [Example T523, (S)-8-(2-chloro-4-(2-(2-methylpiperazin-1-yl)ethoxy)phenyl)-9-((4-chloropyridin-2-yl)methyl)-6-(1-methylcyclopropoxy)-9H-purine] were, in that order, 0.2 µM and > 10 µM.
The like results for `Cc1cc(Cl)nc(Cn2c(-c3ccc(OCCN4CCNCC4)cc3Cl)nc3c(OC4(C)CC4)ncnc32)c1` [Example T524, 8-(2-chloro-4-(2-(piperazin-1-yl)ethoxy)phenyl)-9-((6-chloro-4-methylpyridin-2-yl)methyl)-6-(1-methylcyclopropoxy)-9H-purine] were, in that order, 0.501 µM and > 10 µM.
`Cc1c(Cl)ccnc1Cn1c(-c2ccc(OCCN3CCNCC3)cc2Cl)nc2c(OC3(C)CC3)ncnc21` [Example T525, 9-((4-chloro-3-methylpyridin-2-yl)methyl)-8-(2-chloro-4-(2-(piperazin-1-yl)ethoxy)phenyl)-6-(1-methylcyclopropoxy)-9H-purine]: the IC50 in test [1] is 1.26 µM; in test [2], > 10 µM.
In the same order, the values of `Cc1cnc(Cn2c(-c3ccc(OCCN4CCNCC4)cc3Cl)nc3c(OC4(C)CC4)ncnc32)cc1Cl` [Example T526, 8-(2-chloro-4-(2-(piperazin-1-yl)ethoxy)phenyl)-9-((4-chloro-5-methylpyridin-2-yl)methyl)-6-(1-methylcyclopropoxy)-9H-purine] are 0.631 µM and > 10 µM.
The like results for `Cc1cc(Cl)cc(Cn2c(-c3ccc(OCCN4CCNCC4)cc3Cl)nc3c(OC4(C)CC4)ncnc32)n1` [Example T527, 8-(2-chloro-4-(2-(piperazin-1-yl)ethoxy)phenyl)-9-((4-chloro-6-methylpyridin-2-yl)methyl)-6-(1-methylcyclopropoxy)-9H-purine] were, in that order, 0.398 µM and > 6.31 µM.
In the same order, the values of `Cc1ccnc(Cn2c(-c3ccc(CCN4CCNCC4)cc3Cl)nc3c(OC4(C)CC4)ncnc32)c1` [Example T528, 8-(2-chloro-4-(2-(piperazin-1-yl)ethyl)phenyl)-6-(1-methylcyclopropoxy)-9-((4-methylpyridin-2-yl)methyl)-9H-purine] are 0.398 µM and 7.94 µM.
Regarding `Cc1cc(OCCN2CCNCC2)ccc1-c1nc2c(OC3(C)CC3)ncnc2n1Cc1cc(Cl)ccn1` [Example T529, 9-((4-chloropyridin-2-yl)methyl)-8-(2-methyl-4-(2-(piperazin-1-yl)ethoxy)phenyl)-6-(1-methylcyclopropoxy)-9H-purine], the IC50 in test [1] was 0.631 µM; in test [2], > 10 µM.
In the same order, the values of `Cc1cncc(Cn2c(-c3ccc(OCCN4CCNCC4)cc3Cl)nc3c(OC4(C)CC4)ncnc32)c1` [Example T530, 8-(2-chloro-4-(2-(piperazin-1-yl)ethoxy)phenyl)-6-(1-methylcyclopropoxy)-9-((5-methylpyridin-3-yl)methyl)-9H-purine] are 1 µM and > 10 µM.
In the same order, the values of `Cc1cc(Cn2c(-c3ccc(OCCN4CCNCC4)cc3Cl)nc3c(OC4(C)CC4)ncnc32)ccn1` [Example T531, 8-(2-chloro-4-(2-(piperazin-1-yl)ethoxy)phenyl)-6-(1-methylcyclopropoxy)-9-((2-methylpyridin-4-yl)methyl)-9H-purine] are 6.31 µM and > 10 µM.
`COc1ccc(Cn2c(-c3ccc(OCCN4CCNCC4)cc3Cl)nc3c(OC4(C)CC4)ncnc32)nc1` [Example T532, 8-(2-chloro-4-(2-(piperazin-1-yl)ethoxy)phenyl)-9-((5-methoxypyridin-2-yl)methyl)-6-(1-methylcyclopropoxy)-9H-purine]: the results for the IC50 in test [1] and in test [2] were 6.31 µM and > 10 µM, respectively.
In the same order, the values of `Cc1ccnc(Cn2c(-c3ccc(CC(=O)N4C[C@H]5C[C@@H](C4)O5)cc3Cl)nc3c(OC4(C)CC4)ncnc32)c1` [Example T547, rel-1-((1R,5S)-6-oxa-3-azabicyclo[3.1.1]heptan-3-yl)-2-(3-chloro-4-(6-(1-methylcyclopropoxy)-9-((4-methylpyridin-2-yl)methyl)-9H-purin-8-yl)phenyl)ethan-1-one] are 0.501 µM and > 10 µM.
For `CC1(Oc2ncnc3c2nc(-c2ccc(OCCN4CCC[C@H]4C(=O)O)cc2Cl)n3Cc2cccc(Cl)c2)CC1` [Example T551, (2-(3-chloro-4-(9-(3-chlorobenzyl)-6-(1-methylcyclopropoxy)-9H-purin-8-yl)phenoxy)ethyl)-L-proline], the values for the IC50 in test [1] and in test [2] were 0.316 µM and > 10 µM, respectively.
The like results for `CC1(Oc2ncnc3c2nc(-c2ccc(OCCCN4CC[C@@H](O)C4)cc2Cl)n3Cc2cc(C(F)(F)F)ccn2)CC1` [Example T554, (R)-1-(3-(3-chloro-4-(6-(1-methylcyclopropoxy)-9-((4-(trifluoromethyl)pyridin-2-yl)methyl)-9H-purin-8-yl)phenoxy)propyl)pyrrolidin-3-ol] were, in that order, 0.316 µM and > 10 µM.
In the same order, the values of `Cc1ccnc(Cn2c(-c3ccc(CC(=O)N4CC5CC(C4)N5)cc3Cl)nc3c(OC4(C)CC4)ncnc32)c1` [Example T555, 1-(3,6-diazabicyclo[3.1.1]heptan-3-yl)-2-(3-chloro-4-(6-(1-methylcyclopropoxy)-9-((4-methylpyridin-2-yl)methyl)-9H-purin-8-yl)phenyl)ethan-1-one] are > 7.94 µM and > 10 µM.
The like results for `Cc1ccnc(Cn2c(-c3ccc(CC(=O)N4C[C@@H]5C[C@H]4CN5)cc3Cl)nc3c(OC4(C)CC4)ncnc32)c1` [Example T559, 1-((1S,4S)-2,5-diazabicyclo[2.2.1]heptan-2-yl)-2-(3-chloro-4-(6-(1-methylcyclopropoxy)-9-((4-methylpyridin-2-yl)methyl)-9H-purin-8-yl)phenyl)ethan-1-one] were, in that order, > 6.31 µM and > 10 µM.
Consider `CC1(Oc2ncnc3c2nc(-c2ccc(OCCCCCCC(=O)O)cc2Cl)n3Cc2cccc(Cl)c2)CC1` [Example T561, 7-(3-chloro-4-(9-(3-chlorobenzyl)-6-(1-methylcyclopropoxy)-9H-purin-8-yl)phenoxy)heptanoic acid], for which the IC50 in test [1] was 0.0398 µM; in test [2], > 10 µM.
